Values after ≈ are worked out from the molar mass of the structure shown. Read-outs that look alike come from different tables or passages of the source.
Tests used:
Type in all cases: cell-based
[1] = test system: Neisseria meningitidis; assay: Macro broth dilution MIC, Neisseria meningitidis isolates (Test 2); settings: for MIC: Neisseria meningitidis, 24 h, read-out: Minimum Inhibitory Concentration
Experimental: Compounds were tested against five isolates of Neisseria meningitidis. The bacterial isolates were provided by the Department of Bacterial Diseases of the Walter Reed Army Institute of Research. The test procedure used was the macro broth dilution method in duplicate outlined by J. C. Sherris on pages 414-415 (loc. cit.). The test compounds and controls were prepared as in Test 1 above. Ampicillin and penicillin standards were initially diluted as described by J. C. Sherris on pages 411-412 (loc. cit.) followed by dilution with Mueller-Hinton broth. The tubes were incubated at 37° C. under 5-10% carbon dioxide.

[2] = test system: Mycobacterium smegmatis; assay: MIC against Mycobacterium smegmatis strains (Test 4); settings: Mycolicibacterium smegmatis, read-out: Minimum Inhibitory Concentration
Experimental: Compounds were tested against four strains of Mycobacterium smegmatis. The test procedure used was as mentioned by N. E. Morrison [Int. J. of Leprosy 39:34-43 (1971)]. The strain numbers refer to Mycobacterium smegmatis ATCC 607, a DDS-resistant daughter strain, a Rifampin-resistant daughter strain, and a Clofazimine-resistant daughter strain, respectively.

[3] = test system: Neisseria gonorrhoeae; assay: Agar dilution MIC, Neisseria gonorrhoeae isolates (Test 3); settings: 24 h
Experimental: Compounds were tested against six Neisseria gonorrhoeae isolates. The bacteria used were provided by the Department of Bacterial Diseases of the Walter Reed Army Institute of Research. The test procedure used was the agar dilution method in duplicate as outlined by J. C. Sherris on pages 411-412 (loc. cit.). GC Medium (Difco) with a 2% defined supplement added as described by D. S. Kellogg et al. [J. Bact. 85:1274-1279 (1963)] was used as the media. The compounds were dissolved in DMSO (1.0 mg/mL), diluted with GC broth (GC Medium without agar) to the appropriate concentration, and added to the GC Medium at 55°-56° C. The latter was then poured and allowed to solidify. A penicillin standard was also prepared with initial dilutions as described by J. C. Sherris followed by dilutions with GC broth and addition to the GC Medium at 55°-56° C. as above. The inoculum was 1:200 GC broth dilution of a suspension of colony isolates after the suspension was adjusted visually to the turbidity standard described by J. M. Matsen and A. L. Barr on page 422 in "Manual of Clinical Microbiology," 2nd ed., E. Lennette, E. H. Spaulding, and J. P. Truant, Ed. (American Society for Microbiology, Washington, D.C., 1974). The plates were inoculated with a replicator and incubated at 37° C. under 5-10% carbon dioxide.

[4] = test system: Staphylococcus aureus; assay: Macro broth dilution MIC, Staphylococcus aureus isolates (Test 1); settings: 24 h, read after 24 hours, read-out: Minimum Inhibitory Concentration
Experimental: (§1) Compounds were tested against five isolates of Staphylococcus aureus and five isolates of Group D Enterococcus. The bacteria used were isolated from patients at the Walter Reed Army Medical Center, Washington, D.C. The test procedure used was the macro broth dilution method in duplicate as outlined by J. C. Sherris on pages 414-415 in "Manual of Clinical Microbiology," 2nd ed., E. Lennette, E. H. Spaulding, and J. P. Truant, Ed. (American Society for Microbiology, Washington, D.C., 1974). Each compound was dissolved in DMSO (12.8 mg/mL) and then diluted with Mueller-Hinton broth to obtain the desired dilutions. Tubes containing the highest quantities of DMSO with no compound present were run as controls.

[5] = test system: Group D Enterococcus; assay: Macro broth dilution MIC, Group D Enterococcus isolates (Test 1); settings: 24 h, read after 24 hours, read-out: Minimum Inhibitory Concentration
Experimental: as §1

[6] = Neisseria meningitidis isolate 7957, read after 24 hours
[7] = Neisseria meningitidis isolate 7990, read after 24 hours
[8] = Neisseria meningitidis isolate 8005, read after 24 hours
[9] = Neisseria meningitidis isolate 8006, read after 24 hours
[10] = Neisseria meningitidis isolate 8011, read after 24 hours
[11] = ATCC607, Mycobacterium smegmatis strain I (ATCC 607)
[12] = Mycobacterium smegmatis strain II (DDS-resistant daughter strain)
[13] = Mycobacterium smegmatis strain III (Rifampin-resistant daughter strain)
[14] = Mycobacterium smegmatis strain IV (Clofazimine-resistant daughter strain)
[15] = Group D Enterococcus isolate II
[16] = Group D Enterococcus isolate III
[17] = Group D Enterococcus isolate IV

Molecule CC1(C)S[C@@H]2[C@H](NC(=O)[C@H](N)c3ccccc3)C(=O)N2[C@H]1C(=O)O [Ampicillin, reference compound] has an MIC [1, 6] of 0.008 µg/mL (≈ 0.0229 µM), an MIC [1, 7] of 0.008 µg/mL (≈ 0.0229 µM) and an MIC [1, 8] of 0.008 µg/mL (≈ 0.0229 µM). It also gave an MIC [1, 9] of 0.016 µg/mL (≈ 0.0458 µM) and an MIC [1, 10] of 0.016 µg/mL (≈ 0.0458 µM).

In the case of C=CCNC(=S)NN=C(C)c1ccccn1 [A, 2-Acetylpyridine 4-allyl-3-thiosemicarbazone], the MIC [2, 11] is reported as under 1 µg/mL, the MIC [2, 12] is reported as under 1 µg/mL and the MIC [2, 13] is reported as under 1 µg/mL. It also gave an MIC [2, 14] of under 1 µg/mL.

For CC1(C)S[C@@H]2[C@H](NC(=O)Cc3ccccc3)C(=O)N2[C@H]1C(=O)O [Penicillin, reference compound], the “Minimum Inhibitory Concentration” value [1, 7] was 0.031 µg/mL, the “Minimum Inhibitory Concentration” value [1, 9] was 0.031 µg/mL and the “Minimum Inhibitory Concentration” value [1, 10] was 0.031 µg/mL. For the same molecule, the MIC [1] was 0.031 µg/mL (≈ 0.0927 µM), the MIC ([3]; read-out: Minimum Inhibitory Concentration, Neisseria gonorrhoeae isolate 135, read after 24 hours) was 250 ng/mL (≈ 0.748 µM) and the MIC ([3]; read-out: Minimum Inhibitory Concentration, Neisseria gonorrhoeae isolate 161, read after 24 hours) was 125 ng/mL (≈ 0.374 µM). It also gave an MIC ([3]; read-out: Minimum Inhibitory Concentration, Neisseria gonorrhoeae isolate 278, read after 24 hours) of under 62 ng/mL, an MIC ([3]; read-out: Minimum Inhibitory Concentration, Neisseria gonorrhoeae isolate 455, read after 24 hours) of 125 ng/mL (≈ 0.374 µM) and an MIC ([3]; read-out: Minimum Inhibitory Concentration, Neisseria gonorrhoeae isolate 456, read after 24 hours) of over 16000 ng/mL. The MIC ([3]; read-out: Minimum Inhibitory Concentration, Neisseria gonorrhoeae isolate 602, read after 24 hours) was over 16000 ng/mL.

For CC(=NNC(=S)N(CC(C)C)CC(C)C)c1ccccn1 [O, 2-Acetylpyridine 4,4-diisobutyl-3-thiosemicarbazone], the MIC ([4]; Staphylococcus aureus isolate I) was 0.5 µg/mL (≈ 1.63 µM), the MIC ([4]; Staphylococcus aureus isolate III) was 1 µg/mL (≈ 3.26 µM) and the MIC ([4]; Staphylococcus aureus isolate IV) was 0.5 µg/mL (≈ 1.63 µM). The MIC ([4]; Staphylococcus aureus isolate V) was 0.5 µg/mL (≈ 1.63 µM), the MIC ([5]; Group D Enterococcus isolate I) was 2 µg/mL (≈ 6.53 µM) and the MIC [5, 15] was 2 µg/mL (≈ 6.53 µM). It also gave an MIC [5, 16] of 2 µg/mL (≈ 6.53 µM), an MIC [5, 17] of 4 µg/mL (≈ 13.1 µM) and an MIC ([5]; Group D Enterococcus isolate V) of 2 µg/mL (≈ 6.53 µM). For the same molecule, the MIC [1, 6] was 0.062 µg/mL (≈ 0.202 µM), the MIC [1, 7] was 0.125 µg/mL (≈ 0.408 µM) and the MIC [1, 8] was 0.5 µg/mL (≈ 1.63 µM). For the same molecule, the MIC [1, 9] was 0.062 µg/mL (≈ 0.202 µM) and the MIC [1, 10] was 0.5 µg/mL (≈ 1.63 µM).

CC(C)/N=c1\cc2n(-c3ccc(Cl)cc3)c3ccccc3nc-2cc1Nc1ccc(Cl)cc1 [Clofazimine, reference compound] showed an MIC [2, 11] of 1.5 µg/mL (≈ 3.17 µM) and an MIC [2, 14] of 20 µg/mL (≈ 42.2 µM).

In the case of CO[C@H]1/C=C/O[C@@]2(C)Oc3c(C)c(O)c4c(O)c(c(/C=N/N5CCN(C)CC5)c(O)c4c3C2=O)NC(=O)/C(C)=C\C=C\[C@H](C)[C@H](O)[C@@H](C)[C@@H](O)[C@@H](C)[C@H](OC(C)=O)[C@@H]1C [Rifampin, reference compound], the MIC [2, 11] is reported as 1 µg/mL (≈ 1.22 µM) and the MIC [2, 13] is reported as 250 µg/mL (≈ 304 µM).

Molecule CC(=NNC(=S)N(C)C)c1ccccn1 [R, 2-Acetylpyridine 4,4-dimethyl-3-thiosemicarbazone] has an MIC [1, 6] of 0.062 µg/mL (≈ 0.279 µM), an MIC [1, 7] of 0.125 µg/mL (≈ 0.562 µM) and an MIC [1, 8] of 0.062 µg/mL (≈ 0.279 µM). The MIC [1, 9] was 0.062 µg/mL (≈ 0.279 µM), the MIC [1, 10] was 0.125 µg/mL (≈ 0.562 µM) and the MIC ([3]; Neisseria gonorrhoeae isolate 135, read after 24 hours, read-out: Minimum Inhibitory Concentration) was 4 ng/mL (≈ 0.018 µM). For the same molecule, the MIC ([3]; Neisseria gonorrhoeae isolate 161, read after 24 hours, read-out: Minimum Inhibitory Concentration) was 4 ng/mL (≈ 0.018 µM), the MIC ([3]; Neisseria gonorrhoeae isolate 278, read after 24 hours, read-out: Minimum Inhibitory Concentration) was 8 ng/mL (≈ 0.036 µM) and the MIC ([3]; Neisseria gonorrhoeae isolate 455, read after 24 hours, read-out: Minimum Inhibitory Concentration) was 8 ng/mL (≈ 0.036 µM). It also gave an MIC ([3]; Neisseria gonorrhoeae isolate 456, read after 24 hours, read-out: Minimum Inhibitory Concentration) of 8 ng/mL (≈ 0.036 µM), an MIC ([3]; Neisseria gonorrhoeae isolate 602, read after 24 hours, read-out: Minimum Inhibitory Concentration) of 8 ng/mL (≈ 0.036 µM) and an MIC [2, 11] of 2 µg/mL (≈ 9 µM). It also gave an MIC [2, 12] of 3 µg/mL (≈ 13.5 µM), an MIC [2, 13] of 2 µg/mL (≈ 9 µM) and an MIC [2, 14] of 2 µg/mL (≈ 9 µM).

Work on CC(=NNC(=S)NC(C)(C)CC(C)(C)C)c1ccccn1 [G, 2-Acetylpyridine 4-(1,1,3,3-tetramethylbutyl)-3-thiosemicarbazone] yielded an MIC ([5]; Group D Enterococcus isolate I) of 8 µg/mL (≈ 26.1 µM), an MIC [5, 15] of 4 µg/mL (≈ 13.1 µM) and an MIC [5, 16] of 4 µg/mL (≈ 13.1 µM). For the same molecule, the MIC [5, 17] was 4 µg/mL (≈ 13.1 µM) and the MIC ([5]; Group D Enterococcus isolate V) was 4 µg/mL (≈ 13.1 µM).

Nc1ccc(S(=O)(=O)c2ccc(N)cc2)cc1 [DDS, reference compound] gave an MIC [2, 11] of 2 µg/mL (≈ 8.05 µM) and an MIC [2, 12] of 400 µg/mL (≈ 1610 µM).

Reference: US4385055A, “2-Acetyl-and 2-propionylpyridine thiosemicarbazones as antimalarials” (The United States of America as represented by the …, priority 1981, dated 1983)
